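Test compounds were applied to cells in 96-well plates for 48 hours at 5 doses. Abbreviation: GI50, concentration required for 50% inhibition of growth.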 Calls of active or inactive are those of the source. No stated cut-off is given here; in the data, active = GI50 up to about 1.1 µM and inactive = higher.
Columns and labels:
Assay in all cases: inhibition of tumour cell growth, NCI panel, 48 h
[1] = test system: A498
[2] = test system: A549
[3] = test system: ACHN
[4] = test system: CAKI-1
[5] = test system: COLO 205
[6] = test system: EKVX
[7] = test system: HCT-15
[8] = test system: K562
[9] = test system: KM12
[10] = test system: MDA-N
[11] = test system: MOLT-4
[12] = test system: OVCAR-3
[13] = test system: PC-3
[14] = test system: RPMI-8226
[15] = test system: SF-295
[16] = test system: SN12C
[17] = test system: SNB-19
[18] = test system: SW-620
[19] = test system: U-251
[20] = test system: UACC-62
[21] = test system: 786-0
[22] = test system: DU-145
[23] = test system: HCC 2998
[24] = test system: HCT-116
[25] = test system: HOP-62
[26] = test system: HOP-92
[27] = test system: HT-29
[28] = test system: M14
[29] = test system: MCF7
[30] = test system: MDA-MB-231
[31] = test system: MDA-MB-435
[32] = test system: Malme-3M
[33] = test system: NCI-H23
[34] = test system: NCI-H460
[35] = test system: NCI-H522
[36] = test system: NCI/ADR-RES
[37] = test system: OVCAR-4
[38] = test system: OVCAR-5
[39] = test system: OVCAR-8
[40] = test system: RXF 393
[41] = test system: SF-268
[42] = test system: SF-539
[43] = test system: SK-MEL-28
[44] = test system: SK-MEL-2
[45] = test system: SK-MEL-5
[46] = test system: SK-OV-3
[47] = test system: SR
[48] = test system: T47D
[49] = test system: TK-10
[50] = test system: UO-31
[51] = test system: CCRF-CEM
[52] = test system: HL-60
[53] = test system: Hs-578T
[54] = test system: NCI-H226
[55] = test system: SNB-75
[56] = test system: UACC-257
[57] = test system: IGROV-1
[58] = test system: LOX IMVI

Cc1cc2c(C(C)C)c(O)c(O)c(C=O)c2c(O)c1-c1c(C)cc2c(C(C)C)c(O)c(O)c(C=O)c2c1O
GI50 [1]: 4.47 µM (inactive) | GI50 [2]: 5.69 µM (inactive) | GI50 [3]: 5.51 µM (inactive) | GI50 [4]: 3.39 µM (inactive) | GI50 [5]: 4.35 µM (inactive) | GI50 [6]: 1.32 µM (inactive) | GI50 [7]: 5.18 µM | GI50 [8]: 2.16 µM (inactive) | GI50 [9]: 2.07 µM (inactive) | GI50 [10]: 87.7 µM (inactive) | GI50 [11]: 2.24 µM (inactive) | GI50 [12]: 2.3 µM (inactive) | GI50 [13]: 5.04 µM (inactive) | GI50 [14]: 4.38 µM (inactive) | GI50 [15]: 2.81 µM (inactive) | GI50 [16]: 6.14 µM (inactive) | GI50 [17]: 7.24 µM (inactive) | GI50 [18]: 7.06 µM (inactive) | GI50 [19]: 3.52 µM (inactive) | GI50 [20]: 4.7 µM (inactive)

C[C@H]1OC(=O)[C@@H]2N=NN(Cc3ccccc3)[C@H]12
GI50 [21]: > 100 µM (inactive) | GI50 [1]: > 100 µM (inactive) | GI50 [2]: > 100 µM (inactive) | GI50 [3]: > 100 µM (inactive) | GI50 [4]: > 100 µM (inactive) | GI50 [5]: > 100 µM (inactive) | GI50 [22]: > 100 µM (inactive) | GI50 [23]: > 100 µM (inactive) | GI50 [24]: > 100 µM (inactive) | GI50 [7]: > 100 µM | GI50 [25]: > 100 µM (inactive) | GI50 [26]: > 100 µM (inactive) | GI50 [27]: > 100 µM (inactive) | GI50 [8]: > 100 µM (inactive) | GI50 [9]: > 100 µM (inactive) | GI50 [28]: > 100 µM (inactive) | GI50 [29]: > 100 µM (inactive) | GI50 [30]: > 100 µM (inactive) | GI50 [31]: > 100 µM (inactive) | GI50 [10]: > 100 µM (inactive) | GI50 [11]: > 100 µM (inactive) | GI50 [32]: > 100 µM (inactive) | GI50 [33]: > 100 µM (inactive) | GI50 [34]: > 100 µM (inactive) | GI50 [35]: > 100 µM (inactive) | GI50 [36]: > 100 µM (inactive) | GI50 [12]: > 100 µM (inactive) | GI50 [37]: > 100 µM (inactive) | GI50 [38]: > 100 µM (inactive) | GI50 [39]: > 100 µM (inactive) | GI50 [13]: > 100 µM (inactive) | GI50 [14]: > 100 µM (inactive) | GI50 [40]: > 100 µM (inactive) | GI50 [41]: > 100 µM (inactive) | GI50 [15]: > 100 µM (inactive) | GI50 [42]: > 100 µM (inactive) | GI50 [43]: > 100 µM (inactive) | GI50 [44]: > 100 µM (inactive) | GI50 [45]: > 100 µM (inactive) | GI50 [46]: > 100 µM (inactive) | GI50 [16]: > 100 µM (inactive) | GI50 [17]: > 100 µM (inactive) | GI50 [47]: > 100 µM (inactive) | GI50 [18]: > 100 µM (inactive) | GI50 [48]: > 100 µM (inactive) | GI50 [49]: > 100 µM (inactive) | GI50 [19]: > 100 µM (inactive) | GI50 [20]: > 100 µM (inactive) | GI50 [50]: > 100 µM (inactive)

O=C(NCCCn1ccnc1[N+](=O)[O-])C(=O)NCCCn1ccnc1[N+](=O)[O-]
GI50 [21]: > 100 µM (inactive) | GI50 [3]: > 100 µM (inactive) | GI50 [51]: > 100 µM (inactive) | GI50 [6]: > 100 µM (inactive) | GI50 [23]: > 100 µM (inactive) | GI50 [24]: > 100 µM (inactive) | GI50 [7]: > 100 µM | GI50 [52]: > 100 µM (inactive) | GI50 [25]: > 100 µM (inactive) | GI50 [27]: > 100 µM (inactive) | GI50 [53]: > 100 µM (inactive) | GI50 [8]: > 100 µM (inactive) | GI50 [9]: > 100 µM (inactive) | GI50 [29]: > 100 µM (inactive) | GI50 [11]: > 100 µM (inactive) | GI50 [32]: > 100 µM (inactive) | GI50 [54]: > 100 µM (inactive) | GI50 [33]: > 100 µM (inactive) | GI50 [34]: > 100 µM (inactive) | GI50 [35]: > 100 µM (inactive) | GI50 [12]: > 100 µM (inactive) | GI50 [38]: > 100 µM (inactive) | GI50 [39]: 69.2 µM (inactive) | GI50 [13]: > 100 µM (inactive) | GI50 [14]: > 100 µM (inactive) | GI50 [41]: > 100 µM (inactive) | GI50 [15]: > 100 µM (inactive) | GI50 [42]: > 100 µM (inactive) | GI50 [43]: > 100 µM (inactive) | GI50 [44]: 45.2 µM (inactive) | GI50 [16]: 90.6 µM (inactive) | GI50 [55]: > 100 µM (inactive) | GI50 [47]: > 100 µM (inactive) | GI50 [49]: 31.3 µM (inactive) | GI50 [19]: > 100 µM (inactive) | GI50 [56]: > 100 µM (inactive)

C[C@]12CCC(O)CC1=CC[C@@H]1[C@@H]2CC[C@]2(C)C(O)[C@H](n3ccnc3)C[C@@H]12 (some centres undefined)
GI50 [21]: > 100 µM (inactive) | GI50 [1]: > 100 µM (inactive) | GI50 [2]: 81.7 µM (inactive) | GI50 [3]: 62.2 µM (inactive) | GI50 [4]: > 100 µM (inactive) | GI50 [51]: 17.9 µM (inactive) | GI50 [5]: 47.4 µM (inactive) | GI50 [22]: > 100 µM (inactive) | GI50 [6]: > 100 µM (inactive) | GI50 [24]: 59.4 µM (inactive) | GI50 [7]: 69.2 µM | GI50 [52]: 11.1 µM (inactive) | GI50 [26]: 20.2 µM (inactive) | GI50 [27]: 8.17 µM (inactive) | GI50 [53]: > 100 µM (inactive) | GI50 [57]: > 100 µM (inactive) | GI50 [8]: 12 µM (inactive) | GI50 [9]: 56.2 µM (inactive) | GI50 [58]: 39.2 µM (inactive) | GI50 [28]: > 100 µM (inactive) | GI50 [29]: 51.4 µM (inactive) | GI50 [30]: > 100 µM (inactive) | GI50 [31]: 75 µM (inactive) | GI50 [10]: 79.3 µM (inactive) | GI50 [11]: 17.4 µM (inactive) | GI50 [32]: > 100 µM (inactive) | GI50 [54]: > 100 µM (inactive) | GI50 [33]: 19.5 µM (inactive) | GI50 [34]: 24.8 µM (inactive) | GI50 [35]: 58.6 µM (inactive) | GI50 [36]: > 100 µM (inactive) | GI50 [12]: 72.4 µM (inactive) | GI50 [37]: > 100 µM (inactive) | GI50 [38]: > 100 µM (inactive) | GI50 [39]: > 100 µM (inactive) | GI50 [13]: 41.5 µM (inactive) | GI50 [14]: 22.4 µM (inactive) | GI50 [40]: 55.1 µM (inactive) | GI50 [41]: > 100 µM (inactive) | GI50 [15]: 52 µM (inactive) | GI50 [42]: 64.1 µM (inactive) | GI50 [43]: > 100 µM (inactive) | GI50 [44]: 52.1 µM (inactive) | GI50 [45]: 28.1 µM (inactive) | GI50 [16]: > 100 µM (inactive) | GI50 [17]: 90.4 µM (inactive) | GI50 [55]: > 100 µM (inactive) | GI50 [47]: 13.1 µM (inactive) | GI50 [18]: > 100 µM (inactive) | GI50 [49]: > 100 µM (inactive) | GI50 [19]: 52 µM (inactive) | GI50 [56]: 28.2 µM (inactive) | GI50 [20]: 77.1 µM (inactive) | GI50 [50]: > 100 µM (inactive)
